Patent US20150094474A1, “AGRICULTURAL CHEMICALS” (Redx Pharma Ltd., priority 2012, published 2015)

Experiments:
[1] = tested on: barley; test: Herbicidal bioassay, barley (% necrosis); type: in vivo
Method: (§1) A laboratory bioassay was conducted to screen ten compounds (Fluazifop (25); Ethyl fluazifop (62); five fluazifop analogues: 27, 28, 63, 64 and 65; mesofulfuron (6); and two mesosulfuron analogues: 8 and 61. for activity against Lolium perenne, barley, peas and Chinese cabbage. Compounds were diluted in DMSO. Controls were performed using both DMSO and water.
(§2) Plants were obtained as seeds and were grown to the 2-4 true leaf stage. Plants were grown individually in seed trays. Each plant (in an approximately 3 cm diameter plug) was then detached from the tray for spraying. Environmental conditions were closely monitored and recorded and were within the optimal range of the target species.
(§3) The compounds were screened at a range of six concentrations, eg. 0.05%, 0.01%, 0.005%, 0.001%, 0.0005% and 0.0001%. Treatments will be applied directly onto the plants, using a potter tower.
(§4) One plant of each type will be sprayed using a potter tower. The 4 different types of weeds will be placed in a 10 cm diameter area underneath the potter sprayer and sprayed simultaneously. The growth of the plants and any Phytotoxicity effects will then be assessed at specified growth intervals, according to EPPO guideline PP1/135. Five replicates will be performed for each treatment, for each species.

[2] = tested on: peas; test: Herbicidal bioassay, peas (% necrosis); type: in vivo
Method: as §1, §2, §3, §4

CC(C=O)Oc1ccc(Oc2ccc(C(F)(F)F)cn2)cc1 (stereo not drawn) [Compound 28, 2-[4-[[5-(Trifluoromethyl)-2-pyridyl]oxy]phenoxy]propanal]
B (50%-80% necrosis): Sum of % necrosis in barley ([1]; Dose 0.0001, Day 21) | Sum of % necrosis in Peas ([2]; Dose 0.000001, Day 21) | Sum of % necrosis in Peas ([2]; Dose 0.000005, Day 7) | Sum of % necrosis in Peas ([2]; Dose 0.000005, Day 10) | Sum of % necrosis in Peas ([2]; Dose 0.000005, Day 14) | Sum of % necrosis in Peas ([2]; Dose 0.0005, Day 7) | Sum of % necrosis in Peas ([2]; Dose 0.0005, Day 10)
C (less than 50% necrosis): Sum of % necrosis in barley ([1]; Dose 0.000001, Day 0) | Sum of % necrosis in barley ([1]; Dose 0.000001, Day 1) | Sum of % necrosis in barley ([1]; Dose 0.000001, Day 3) | Sum of % necrosis in barley ([1]; Dose 0.000001, Day 7) | Sum of % necrosis in barley ([1]; Dose 0.000001, Day 10) | Sum of % necrosis in barley ([1]; Dose 0.000001, Day 14) | Sum of % necrosis in barley ([1]; Dose 0.000001, Day 21) | Sum of % necrosis in barley ([1]; Dose 0.000005, Day 0) | Sum of % necrosis in barley ([1]; Dose 0.000005, Day 1) | Sum of % necrosis in barley ([1]; Dose 0.000005, Day 3) | Sum of % necrosis in barley ([1]; Dose 0.000005, Day 7) | Sum of % necrosis in barley ([1]; Dose 0.000005, Day 10) | Sum of % necrosis in barley ([1]; Dose 0.000005, Day 14) | Sum of % necrosis in barley ([1]; Dose 0.000005, Day 21) | Sum of % necrosis in barley ([1]; Dose 0.00001, Day 0) | Sum of % necrosis in barley ([1]; Dose 0.00001, Day 1) | Sum of % necrosis in barley ([1]; Dose 0.00001, Day 3) | Sum of % necrosis in barley ([1]; Dose 0.00001, Day 7) | Sum of % necrosis in barley ([1]; Dose 0.00001, Day 10) | Sum of % necrosis in barley ([1]; Dose 0.00001, Day 14) | Sum of % necrosis in barley ([1]; Dose 0.00001, Day 21) | Sum of % necrosis in barley ([1]; Dose 0.00005, Day 0) | Sum of % necrosis in barley ([1]; Dose 0.00005, Day 1) | Sum of % necrosis in barley ([1]; Dose 0.00005, Day 3) | Sum of % necrosis in barley ([1]; Dose 0.00005, Day 7) | Sum of % necrosis in barley ([1]; Dose 0.00005, Day 10) | Sum of % necrosis in barley ([1]; Dose 0.00005, Day 14) | Sum of % necrosis in barley ([1]; Dose 0.00005, Day 21) | Sum of % necrosis in barley ([1]; Dose 0.0001, Day 0) | Sum of % necrosis in barley ([1]; Dose 0.0001, Day 1) | Sum of % necrosis in barley ([1]; Dose 0.0001, Day 3) | Sum of % necrosis in barley ([1]; Dose 0.0001, Day 7) | Sum of % necrosis in barley ([1]; Dose 0.0001, Day 10) | Sum of % necrosis in barley ([1]; Dose 0.0001, Day 14) | Sum of % necrosis in barley ([1]; Dose 0.0005, Day 0) | Sum of % necrosis in barley ([1]; Dose 0.0005, Day 1) | Sum of % necrosis in barley ([1]; Dose 0.0005, Day 3) | Sum of % necrosis in barley ([1]; Dose 0.0005, Day 7) | Sum of % necrosis in barley ([1]; Dose 0.0005, Day 10) | Sum of % necrosis in barley ([1]; Dose 0.0005, Day 14) | Sum of % necrosis in Peas ([2]; Dose 0.000001, Day 0) | Sum of % necrosis in Peas ([2]; Dose 0.000001, Day 1) | Sum of % necrosis in Peas ([2]; Dose 0.000001, Day 3) | Sum of % necrosis in Peas ([2]; Dose 0.000001, Day 7) | Sum of % necrosis in Peas ([2]; Dose 0.000001, Day 10) | Sum of % necrosis in Peas ([2]; Dose 0.000001, Day 14) | Sum of % necrosis in Peas ([2]; Dose 0.000005, Day 0) | Sum of % necrosis in Peas ([2]; Dose 0.000005, Day 1) | Sum of % necrosis in Peas ([2]; Dose 0.000005, Day 3) | Sum of % necrosis in Peas ([2]; Dose 0.00001, Day 0) | Sum of % necrosis in Peas ([2]; Dose 0.00001, Day 1) | Sum of % necrosis in Peas ([2]; Dose 0.00001, Day 3) | Sum of % necrosis in Peas ([2]; Dose 0.00001, Day 7) | Sum of % necrosis in Peas ([2]; Dose 0.00001, Day 10) | Sum of % necrosis in Peas ([2]; Dose 0.00005, Day 0) | Sum of % necrosis in Peas ([2]; Dose 0.00005, Day 1) | Sum of % necrosis in Peas ([2]; Dose 0.00005, Day 3) | Sum of % necrosis in Peas ([2]; Dose 0.00005, Day 7) | Sum of % necrosis in Peas ([2]; Dose 0.00005, Day 10) | Sum of % necrosis in Peas ([2]; Dose 0.0001, Day 0) | Sum of % necrosis in Peas ([2]; Dose 0.0001, Day 1) | Sum of % necrosis in Peas ([2]; Dose 0.0001, Day 3) | Sum of % necrosis in Peas ([2]; Dose 0.0001, Day 7) | Sum of % necrosis in Peas ([2]; Dose 0.0001, Day 10) | Sum of % necrosis in Peas ([2]; Dose 0.0005, Day 0) | Sum of % necrosis in Peas ([2]; Dose 0.0005, Day 1) | Sum of % necrosis in Peas ([2]; Dose 0.0005, Day 3)
A (over 80% necrosis): Sum of % necrosis in barley ([1]; Dose 0.0005, Day 21) | Sum of % necrosis in Peas ([2]; Dose 0.000005, Day 21) | Sum of % necrosis in Peas ([2]; Dose 0.00001, Day 14) | Sum of % necrosis in Peas ([2]; Dose 0.00001, Day 21) | Sum of % necrosis in Peas ([2]; Dose 0.00005, Day 14) | Sum of % necrosis in Peas ([2]; Dose 0.00005, Day 21) | Sum of % necrosis in Peas ([2]; Dose 0.0001, Day 14) | Sum of % necrosis in Peas ([2]; Dose 0.0001, Day 21) | Sum of % necrosis in Peas ([2]; Dose 0.0005, Day 14) | Sum of % necrosis in Peas ([2]; Dose 0.0005, Day 21)
